# Source: US20070270352A1, “Method of Treatment” (priority 2002, published 2007)
# Like-named read-outs stand apart in the source and are kept apart here.
# How the values were obtained:
# [1] = system: p75^NTR (i.e. Chopper)-mediated cell apoptosis; format: cell-based, mice
# [2] = system: p75^NTR-mediated cell apoptosis; test: Caspase activity after injection into the eye of chick embryos (FIG. 11); format: in vivo; settings: injected into the eye of chick embryos; 500 nM of Tertiapin
# Protocol: FIG. 11 is a graphical representation showing that p75^NTR-mediated cell apoptosis requires functional GIRK channels. Apoptotic activity is measured in terms of caspase activity in the presence of Tertiapin, anti-NGF antibody and Iberiotoxin.
# In FIG. 11, Tertiapin was injected into the eye of chick embryos. Anti-NGF antibodies and Iberiotoxin ([…]) were also tested. Apoptotic activity was measured using caspase activity.
# [3] = target: T1, GIRK 1 and 4 subunits (Homo sapiens, UniProt P48544+P48549); settings: cited from earlier work
# T1 sequence (P48544 whole entry, looked up): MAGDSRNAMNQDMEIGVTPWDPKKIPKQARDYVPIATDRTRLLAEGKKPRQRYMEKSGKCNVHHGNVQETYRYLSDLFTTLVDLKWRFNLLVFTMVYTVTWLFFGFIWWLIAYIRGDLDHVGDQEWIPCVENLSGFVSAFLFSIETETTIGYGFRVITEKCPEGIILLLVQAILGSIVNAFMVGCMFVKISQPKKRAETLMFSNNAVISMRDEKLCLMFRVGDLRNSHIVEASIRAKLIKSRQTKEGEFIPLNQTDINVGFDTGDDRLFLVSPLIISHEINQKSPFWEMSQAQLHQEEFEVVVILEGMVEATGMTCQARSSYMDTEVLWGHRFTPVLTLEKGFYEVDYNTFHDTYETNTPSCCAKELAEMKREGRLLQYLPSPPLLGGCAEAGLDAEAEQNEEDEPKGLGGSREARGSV
# T1 sequence (P48549 whole entry, looked up): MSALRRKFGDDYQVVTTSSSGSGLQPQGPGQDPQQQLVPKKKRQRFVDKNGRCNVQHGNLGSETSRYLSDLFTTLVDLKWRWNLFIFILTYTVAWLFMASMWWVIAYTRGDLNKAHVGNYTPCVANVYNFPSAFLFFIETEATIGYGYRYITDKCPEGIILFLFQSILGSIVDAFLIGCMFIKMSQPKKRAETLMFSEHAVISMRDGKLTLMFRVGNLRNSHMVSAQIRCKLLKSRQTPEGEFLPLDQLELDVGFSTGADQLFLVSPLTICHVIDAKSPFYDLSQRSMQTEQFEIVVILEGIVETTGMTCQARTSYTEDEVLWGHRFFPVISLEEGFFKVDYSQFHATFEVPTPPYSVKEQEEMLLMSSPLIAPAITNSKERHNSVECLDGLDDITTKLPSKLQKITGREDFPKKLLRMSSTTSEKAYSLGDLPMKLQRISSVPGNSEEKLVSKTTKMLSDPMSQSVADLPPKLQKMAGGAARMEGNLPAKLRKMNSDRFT
# [4] = target: T2, ROMK1 channels (Homo sapiens, UniProt P48048); settings: cited from earlier work
# T2 sequence (P48048 whole entry, looked up): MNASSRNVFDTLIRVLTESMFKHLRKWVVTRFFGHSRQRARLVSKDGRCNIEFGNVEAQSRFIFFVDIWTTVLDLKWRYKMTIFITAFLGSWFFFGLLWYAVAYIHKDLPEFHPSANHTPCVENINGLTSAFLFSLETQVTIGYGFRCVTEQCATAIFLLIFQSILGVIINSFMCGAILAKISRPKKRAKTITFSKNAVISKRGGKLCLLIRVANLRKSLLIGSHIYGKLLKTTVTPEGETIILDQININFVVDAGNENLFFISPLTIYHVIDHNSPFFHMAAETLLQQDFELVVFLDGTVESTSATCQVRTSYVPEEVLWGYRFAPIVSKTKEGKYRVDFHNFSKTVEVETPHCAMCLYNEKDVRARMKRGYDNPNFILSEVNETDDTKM
# [5] = p75NTR (Chopper)-mediated apoptosis of neuronal cells, neuronal viability after Chopper peptide, inhibitor added just prior or pretreated
Compound,"Prevention of killing? [1, 5]",further results
2-APB,No,–
Nc1ccncc1 [4-aminopyridine],Toxic,–
CC(=O)OCOC(=O)CN(CC(=O)OCOC(C)=O)c1ccccc1OCCOc1ccccc1N(CC(=O)OCOC(C)=O)CC(=O)OCOC(C)=O [BAPTA-AM],Yes,–
O=C(O)CN(CC(=O)O)c1ccccc1OCCOc1ccccc1N(CC(=O)O)CC(=O)O [BAPTA],No,–
NCC(CC(=O)O)c1ccc(Cl)cc1 (stereo not shown) [Baclofen],–,cell survival ([1]; GABA receptor agonist activating GIRKs (FIG. 10 model)): promotion of cell survival
CCCCN1CCCCC1C(=O)Nc1c(C)cccc1C (stereo not shown) [Bupivicane],Yes,"Chopper domain-mediated killing / p75^NTR (i.e. Chopper)-mediated cell apoptosis ([1]; FIGS. 3-7, 10): inhibited"
"CC[N+](CC)(CC)CC.[Cl-] [TEA, Tetraethylammonium chloride]",–,Chopper domain-mediated killing / p75^NTR (i.e. Chopper)-mediated cell apoptosis [1]: inhibited; Prevention of killing? [1]: Yes
Charybdotoxin,Yes,"Chopper domain-mediated killing / p75^NTR (i.e. Chopper)-mediated cell apoptosis ([1]; FIGS. 3-7, 10): inhibited"
"Iberiotoxin (QFTDVDCSVSKECWSVCKDLFGVDRGKCMGKKCRCYQ; UniProt P24663 1-37, looked up)",No,–
Margatoxin,No,–
Pertussis toxin [Pertusis toxin],No,"Chopper domain-mediated killing / p75^NTR (i.e. Chopper)-mediated cell apoptosis ([1]; FIGS. 3-7, 10): still results in Chopper-mediated killing"
TTX,–,Prevention of killing? [1]: No
Tertiapin (ALCNCNRIIIPHMCWKKCGKK),Yes,"Chopper domain-mediated killing / p75^NTR (i.e. Chopper)-mediated cell apoptosis ([1]; FIGS. 3-7, 10): inhibited; caspase activity (apoptotic activity) [2]: effective in reducing caspase activity; affinity of inhibition [3]: nanomolar affinities; affinity of inhibition [4]: nanomolar affinities"
δ-Dendrotoxin,No,–
